ChEMBL document CHEMBL3045802, “Synthesis and in vitro antitumor activity of new quinoline, pyrimido[4,5-b]quinoline, [1,2,3]triazino[4,5-b]quinoline, and [1,2,4]triazolo[2,3:3,4]pyrimido[6,5-b]quinoline analogs” (2013)

Tests used:
Format in all cases: functional
RPMI-8226 = test: Cytotoxicity against Homo sapiens (human) RPMI8226 cells assessed as growth inhibition at 10 uM after 48 hr by coulter counter analysis; settings: RPMI-8226, 48 h, read-out: GI
SF-295 = test: Cytotoxicity against Homo sapiens (human) SF295 cells assessed as growth inhibition at 10 uM after 48 hr by coulter counter analysis; settings: SF-295, 48 h, read-out: GI
NCI-H23 = test: Cytotoxicity against Homo sapiens (human) NCI-H23 cells assessed as growth inhibition at 10 uM after 48 hr by coulter counter analysis; settings: NCI-H23, 48 h, read-out: GI
NCI-H460 = test: Cytotoxicity against Homo sapiens (human) NCI-H460 cells assessed as growth inhibition at 10 uM after 48 hr by coulter counter analysis; settings: NCI-H460, 48 h, read-out: GI
UACC-257 = test: Cytotoxicity against Homo sapiens (human) UACC257 cells assessed as growth inhibition at 10 uM after 48 hr by coulter counter analysis; settings: UACC-257, 48 h, read-out: GI
HCT-116 = test: Cytotoxicity against Homo sapiens (human) HCT116 cells assessed as growth inhibition at 10 uM after 48 hr by coulter counter analysis; settings: HCT-116, 48 h, read-out: GI
OVCAR-4 = test: Cytotoxicity against Homo sapiens (human) OVCAR4 cells assessed as growth inhibition at 10 uM after 48 hr by coulter counter analysis; settings: OVCAR-4, 48 h, read-out: GI
MOLT-4 = test: Cytotoxicity against Homo sapiens (human) MOLT4 cells assessed as growth inhibition at 10 uM after 48 hr by coulter counter analysis; settings: MOLT-4, 48 h, read-out: GI
OVCAR-5 = test: Cytotoxicity against Homo sapiens (human) OVCAR5 cells assessed as growth inhibition at 10 uM after 48 hr by coulter counter analysis; settings: OVCAR-5, 48 h, read-out: GI
IGROV-1 = test: Cytotoxicity against Homo sapiens (human) IGROV1 cells assessed as growth inhibition at 10 uM after 48 hr by coulter counter analysis; settings: IGROV-1, 48 h, read-out: GI
MDA-MB-231 = test: Cytotoxicity against Homo sapiens (human) MDA-MB-231 cells assessed as growth inhibition at 10 uM after 48 hr by coulter counter analysis; settings: MDA-MB-231, 48 h, read-out: GI
SF-539 = test: Cytotoxicity against Homo sapiens (human) SF539 cells assessed as growth inhibition at 10 uM after 48 hr by coulter counter analysis; settings: SF-539, 48 h, read-out: GI
TK-10 = test: Cytotoxicity against Homo sapiens (human) TK10 cells assessed as growth inhibition at 10 uM after 48 hr by coulter counter analysis; settings: TK-10, 48 h, read-out: GI
DU-145 = test: Cytotoxicity against Homo sapiens (human) DU145 cells assessed as growth inhibition at 10 uM after 48 hr by coulter counter analysis; settings: DU-145, 48 h, read-out: GI
MDA-MB-468 = test: Cytotoxicity against Homo sapiens (human) MDA-MB-468 cells assessed as growth inhibition at 10 uM after 48 hr by coulter counter analysis; settings: MDA-MB-468, 48 h, read-out: GI
M14 = test: Cytotoxicity against Homo sapiens (human) M14 cells assessed as growth inhibition at 10 uM after 48 hr by coulter counter analysis; settings: M14, 48 h, read-out: GI
RXF 393 = test: Cytotoxicity against Homo sapiens (human) RXF393 cells assessed as growth inhibition at 10 uM after 48 hr by coulter counter analysis; settings: RXF 393, 48 h, read-out: GI
LOX IMVI = test: Cytotoxicity against Homo sapiens (human) LOXIMVI cells assessed as growth inhibition at 10 uM after 48 hr by coulter counter analysis; settings: read-out: GI
OVCAR-3 = test: Cytotoxicity against Homo sapiens (human) OVCAR3 cells assessed as growth inhibition at 10 uM after 48 hr by coulter counter analysis; settings: OVCAR-3, 48 h, read-out: GI
K562 = test: Cytotoxicity against Homo sapiens (human) K562 cells assessed as growth inhibition at 10 uM after 48 hr by coulter counter analysis; settings: K562, 48 h, read-out: GI
SR = test: Cytotoxicity against Homo sapiens (human) SR cells assessed as growth inhibition at 10 uM after 48 hr by coulter counter analysis; settings: read-out: GI
OVCAR-8 = test: Cytotoxicity against Homo sapiens (human) OVCAR8 cells assessed as growth inhibition at 10 uM after 48 hr by coulter counter analysis; settings: OVCAR-8, 48 h, read-out: GI
A549 = test: Cytotoxicity against Homo sapiens (human) A549 cells assessed as growth inhibition at 10 uM after 48 hr by coulter counter analysis; settings: A549, 48 h, read-out: GI
SK-MEL-28 = test: Cytotoxicity against Homo sapiens (human) SK-MEL-28 cells assessed as growth inhibition at 10 uM after 48 hr by coulter counter analysis; settings: SK-MEL-28, 48 h, read-out: GI
SN12C = test: Cytotoxicity against Homo sapiens (human) SN12C cells assessed as growth inhibition at 10 uM after 48 hr by coulter counter analysis; settings: read-out: GI
SNB-19 = test: Cytotoxicity against Homo sapiens (human) SNB19 cells assessed as growth inhibition at 10 uM after 48 hr by coulter counter analysis; settings: SNB-19, 48 h, read-out: GI
COLO 205 = test: Cytotoxicity against Homo sapiens (human) COLO205 cells assessed as growth inhibition at 10 uM after 48 hr by coulter counter analysis; settings: COLO 205, 48 h, read-out: GI
HCC 2998 = test: Cytotoxicity against Homo sapiens (human) HCC2998 cells assessed as growth inhibition at 10 uM after 48 hr by coulter counter analysis; settings: HCC 2998, 48 h, read-out: GI
T47D = test: Cytotoxicity against Homo sapiens (human) T47D cells assessed as growth inhibition at 10 uM after 48 hr by coulter counter analysis; settings: read-out: GI
HOP-92 = test: Cytotoxicity against Homo sapiens (human) HOP92 cells assessed as growth inhibition at 10 uM after 48 hr by coulter counter analysis; settings: HOP-92, 48 h, read-out: GI
MCF7 = test: Cytotoxicity against Homo sapiens (human) MCF7 cells assessed as growth inhibition at 10 uM after 48 hr by coulter counter analysis; settings: MCF7, 48 h, read-out: GI
MDA-MB-435 = test: Cytotoxicity against Homo sapiens (human) MDA-MB-435 cells assessed as growth inhibition at 10 uM after 48 hr by coulter counter analysis; settings: MDA-MB-435, 48 h, read-out: GI
Hs-578T = test: Cytotoxicity against Homo sapiens (human) Hs578T cells assessed as growth inhibition at 10 uM after 48 hr by coulter counter analysis; settings: read-out: GI
BT-549 = test: Cytotoxicity against Homo sapiens (human) BT549 cells assessed as growth inhibition at 10 uM after 48 hr by coulter counter analysis; settings: BT-549, 48 h, read-out: GI

SMILES | inhibition of growth at 10 µM (RPMI-8226) [%] | inhibition of growth at 10 µM (SF-295) [%] | inhibition of growth at 10 µM (NCI-H23) [%] | inhibition of growth at 10 µM (NCI-H460) [%] | inhibition of growth at 10 µM (UACC-257) [%] | inhibition of growth at 10 µM (HCT-116) [%] | inhibition of growth at 10 µM (OVCAR-4) [%] | inhibition of growth at 10 µM (MOLT-4) [%] | inhibition of growth at 10 µM (OVCAR-5) [%] | inhibition of growth at 10 µM (IGROV-1) [%] | inhibition of growth at 10 µM (MDA-MB-231) [%] | inhibition of growth at 10 µM (SF-539) [%] | inhibition of growth at 10 µM (TK-10) [%] | inhibition of growth at 10 µM (DU-145) [%] | inhibition of growth at 10 µM (MDA-MB-468) [%] | inhibition of growth at 10 µM (M14) [%] | inhibition of growth at 10 µM (RXF 393) [%] | inhibition of growth at 10 µM (LOX IMVI) [%] | inhibition of growth at 10 µM (OVCAR-3) [%] | inhibition of growth at 10 µM (K562) [%] | further results
O=c1[nH]nnc2c1C(c1ccc(Cl)cc1)C1=C(CCCC1)N2 (stereo unspecified) | < 10 | < 10 | 10.4 | < 10 | < 10 | < 10 | < 10 | < 10 | < 10 | < 10 | < 10 | < 10 | < 10 | < 10 | 13.3 | < 10 | < 10 | < 10 | < 10 | < 10 | inhibition of growth at 10 µM (SR): < 10%; inhibition of growth at 10 µM (OVCAR-8): < 10%; inhibition of growth at 10 µM (A549): < 10%; inhibition of growth at 10 µM (SK-MEL-28): < 10%; inhibition of growth at 10 µM (SN12C): < 10%; inhibition of growth at 10 µM (SNB-19): < 10%; inhibition of growth at 10 µM (COLO 205): 13.5%; inhibition of growth at 10 µM (HCC 2998): < 10%; inhibition of growth at 10 µM (T47D): 13.3%; inhibition of growth at 10 µM (HOP-92): < 10%; inhibition of growth at 10 µM (MCF7): < 10%; inhibition of growth at 10 µM (MDA-MB-435): < 10%; inhibition of growth at 10 µM (Hs-578T): < 10%; inhibition of growth at 10 µM (BT-549): < 10%
COc1ccc(C2C3=C(CCCC3)Nc3nn[nH]c(=O)c32)cc1OC (stereo unspecified) | < 10 | < 10 | < 10 | < 10 | < 10 | < 10 | < 10 | < 10 | 12.6 | < 10 | < 10 | < 10 | < 10 | < 10 | 21.1 | < 10 | 14.4 | < 10 | < 10 | < 10 | inhibition of growth at 10 µM (SR): < 10%; inhibition of growth at 10 µM (OVCAR-8): < 10%; inhibition of growth at 10 µM (A549): < 10%; inhibition of growth at 10 µM (SK-MEL-28): < 10%; inhibition of growth at 10 µM (SN12C): 10.8%; inhibition of growth at 10 µM (SNB-19): 10.7%; inhibition of growth at 10 µM (COLO 205): 15.9%; inhibition of growth at 10 µM (HCC 2998): < 10%; inhibition of growth at 10 µM (T47D): 21.1%; inhibition of growth at 10 µM (HOP-92): 13.3%; inhibition of growth at 10 µM (MCF7): < 10%; inhibition of growth at 10 µM (MDA-MB-435): < 10%; inhibition of growth at 10 µM (Hs-578T): < 10%; inhibition of growth at 10 µM (BT-549): < 10%
COc1ccc(C2C3=C(CCCC3)Nc3[nH]c(=S)nc(NC(N)=S)c32)cc1OC (stereo unspecified) | < 10 | 14.4 | 15.3 | < 10 | < 10 | < 10 | < 10 | < 10 | < 10 | < 10 | 17.4 | 21.1 | < 10 | < 10 | 14.2 | < 10 | 14.3 | 16.1 | < 10 | 17.6 | inhibition of growth at 10 µM (SR): 40.6%; inhibition of growth at 10 µM (OVCAR-8): < 10%; inhibition of growth at 10 µM (A549): < 10%; inhibition of growth at 10 µM (SK-MEL-28): < 10%; inhibition of growth at 10 µM (SN12C): < 10%; inhibition of growth at 10 µM (SNB-19): 10.4%; inhibition of growth at 10 µM (COLO 205): 12.8%; inhibition of growth at 10 µM (HCC 2998): < 10%; inhibition of growth at 10 µM (T47D): 27.5%; inhibition of growth at 10 µM (HOP-92): 25.8%; inhibition of growth at 10 µM (MCF7): < 10%; inhibition of growth at 10 µM (MDA-MB-435): 70.7%; inhibition of growth at 10 µM (Hs-578T): 17.7%; inhibition of growth at 10 µM (BT-549): < 10%
N#CCc1nc2c(c(=O)[nH]1)C(c1ccc(Cl)cc1)C1=C(CCCC1)N2 (stereo unspecified) | < 10 | < 10 | 12.1 | < 10 | < 10 | < 10 | < 10 | < 10 | < 10 | < 10 | < 10 | < 10 | < 10 | < 10 | < 10 | < 10 | < 10 | < 10 | < 10 | < 10 | inhibition of growth at 10 µM (SR): < 10%; inhibition of growth at 10 µM (OVCAR-8): < 10%; inhibition of growth at 10 µM (A549): < 10%; inhibition of growth at 10 µM (SK-MEL-28): < 10%; inhibition of growth at 10 µM (SN12C): 15.5%; inhibition of growth at 10 µM (SNB-19): < 10%; inhibition of growth at 10 µM (COLO 205): 10.4%; inhibition of growth at 10 µM (HCC 2998): < 10%; inhibition of growth at 10 µM (T47D): 14.1%; inhibition of growth at 10 µM (HOP-92): 11.2%; inhibition of growth at 10 µM (MCF7): < 10%; inhibition of growth at 10 µM (MDA-MB-435): < 10%; inhibition of growth at 10 µM (Hs-578T): < 10%; inhibition of growth at 10 µM (BT-549): < 10%
